In patent publication US11731977B2, “SGC stimulators” (Cyclerion Therapeutics, Inc., priority 2016, dated 2023):
Where two headings read alike, the source gives them in different places.

What was measured:
sGC enzyme = target: T1, sGC enzyme (Homo sapiens, UniProt Q02108+Q02153); assay: cGMP GloSensor cell-based assay, synergy with NO at varied DETA-NO (Example 2b); conditions: for EC50: HEK293 GloSensor cells, read-out: EC50 (Absolute EC50)
T1 construct: sGC enzyme activity values in HEK cells, determined by the GloSensor assay; host or cells: HEK293 cells stably expressing GloSensor 40F cGMP biosensor
T1 sequence (Q02153 1-619): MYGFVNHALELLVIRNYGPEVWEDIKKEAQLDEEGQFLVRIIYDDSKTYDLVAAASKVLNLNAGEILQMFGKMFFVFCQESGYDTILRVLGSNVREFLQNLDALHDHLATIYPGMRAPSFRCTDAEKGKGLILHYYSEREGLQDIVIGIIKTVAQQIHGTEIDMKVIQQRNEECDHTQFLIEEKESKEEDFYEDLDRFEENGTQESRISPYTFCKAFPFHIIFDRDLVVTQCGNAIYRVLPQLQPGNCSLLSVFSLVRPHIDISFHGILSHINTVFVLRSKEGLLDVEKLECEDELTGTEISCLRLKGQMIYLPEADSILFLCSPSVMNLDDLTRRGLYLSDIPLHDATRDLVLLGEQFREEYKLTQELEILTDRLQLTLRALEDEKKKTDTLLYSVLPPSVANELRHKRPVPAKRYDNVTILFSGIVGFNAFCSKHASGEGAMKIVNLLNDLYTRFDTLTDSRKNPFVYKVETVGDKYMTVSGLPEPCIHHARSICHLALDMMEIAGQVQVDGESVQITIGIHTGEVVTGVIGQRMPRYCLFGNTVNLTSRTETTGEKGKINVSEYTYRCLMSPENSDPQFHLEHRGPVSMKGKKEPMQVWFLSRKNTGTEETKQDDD
T1 sequence (Q02108 1-690): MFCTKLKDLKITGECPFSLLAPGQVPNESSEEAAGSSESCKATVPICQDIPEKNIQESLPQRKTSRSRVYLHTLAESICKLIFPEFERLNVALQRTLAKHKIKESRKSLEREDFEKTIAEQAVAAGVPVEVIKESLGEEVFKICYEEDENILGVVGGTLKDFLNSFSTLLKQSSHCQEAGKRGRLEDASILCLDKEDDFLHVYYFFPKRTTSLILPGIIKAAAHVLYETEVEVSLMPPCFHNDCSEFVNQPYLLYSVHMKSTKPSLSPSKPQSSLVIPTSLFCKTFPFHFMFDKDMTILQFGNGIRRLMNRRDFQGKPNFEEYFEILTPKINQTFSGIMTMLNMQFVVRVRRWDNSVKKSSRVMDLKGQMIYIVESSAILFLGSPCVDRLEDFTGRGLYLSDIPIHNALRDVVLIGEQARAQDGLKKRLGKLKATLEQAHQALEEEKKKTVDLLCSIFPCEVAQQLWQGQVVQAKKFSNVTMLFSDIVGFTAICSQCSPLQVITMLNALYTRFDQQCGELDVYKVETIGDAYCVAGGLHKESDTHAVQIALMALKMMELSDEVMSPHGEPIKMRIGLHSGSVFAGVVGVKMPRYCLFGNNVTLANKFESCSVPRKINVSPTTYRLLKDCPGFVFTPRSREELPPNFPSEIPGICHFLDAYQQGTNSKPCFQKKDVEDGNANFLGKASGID
Method: HEK293 cells expressing GloSensor™ 40F cGMP (Part No: CS182801, Promega) were used to evaluate the synergy of the test compounds with NO. Multiple assays where run in which the concentrations of test compound also well as the concentration of Diethylenetriamine NONOate (DETA-NONOate) were varied to determine the synergy of the test compound with NO. Test compounds and Diethylenetriamine NONOate (DETA-NONOate or DETA-NO) were diluted to 3 mM (20×) in serum-free CO2 independent medium and serially diluted at 4× dilutions to create 5× dose curve from which 10 ul was added to the wells (x μM concentration for test compound solution and y μM concentration for DETA-NO solution; wherein x is one of the following final concentrations: 30000 nM, 7500 nM, 1875 nM, 468.8 nM, 117.2 nM, 29.29 nM, 7.320 nM, 1.830 nM, 0.460 nM, 0.114 nM, and 0.029 nM and y is one of the following final concentrations: 30 μM, 10 μM, 3.33 μM 1.11 μM, and 0 μM).
Following the analysis as described above, Table 2b summarizes results obtained for Compound I-1 with the various DETA-NO amount in this assay.

[1] = Dog cerebrospinal fluid (CSF) pharmacokinetic properties (Example 5); format: in vivo; conditions: male, beagle, 1 mg/kg PO
Method: Protocol PK in dogs was determined following oral dosing. A group of 4 male beagle dogs were used and the dogs were dosed with 1 mg/kg of a compound formulated as a suspension in 1% HPMC E5, 0.2% Tween 80, and 0.5% MC in water. PO doses were administered by oral gavage in a gelatin capsule and delivered to the stomach using a gavage tube. Following oral dosage administration, the gavage tube was flushed with approximately 10 mL of water to ensure complete delivery of the full dose.
Plasma and CSF samples were collected as follows: samples of CSF and blood were collected at 1, 2, 4 and 8 hours post PO dosing. CSF samples (0.05 mL) were collected from the lumbosacral region (L4/5) via direct needle puncture at the appropriate time points. Blood samples (0.25 mL) were collected via cephalic vein. These samples were kept on ice until processed for plasma. Blood samples were centrifuged at 3200 rpm for 5 minutes at approximately 5° C. within 1 hour of collection. Plasma was directly transferred to a 96-well plate tube (0.125 mL). Plug caps were placed on the tubes and the tubes frozen at approximately −70° C. and stored until analysis. Plasma was collected and analyzed for the presence of a compound.
Quantitation of Compounds. The compound of the invention and the internal standard were extracted from plasma and CSF by precipitation. Samples were analyzed using liquid chromatography (LC) with tandem mass spectrometric detection (MS/MS) using electrospray ionization. The standard curve range was from 1 to 1000 ng/mL. Results of the compounds described herein in this assay are illustrated in Tables 5a and 5b below (1 mg/kg dose).
Kp,uu is defined as the concentration ratio of unbound drug in CSF to unbound drug in plasma. Unbound drug in plasma (or free plasma concentration) is calculated by multiplying the total plasma concentration by the unbound fraction as determined by plasma protein binding. The CSF concentration is then divided by the free plasma concentration to determine the Kp,uu. (See e.g., Di et al., J. Med. Chem 56, 2-12 (2013))

- EC50 (sGC enzyme; [DETA-NO] 0 uM): 100 to 1000 nM
- EC50 (sGC enzyme; [DETA-NO] 1.11 uM): 100 to 1000 nM
- EC50 (sGC enzyme; [DETA-NO] 3.33 uM): 100 to 1000 nM
- EC50 (sGC enzyme; [DETA-NO] 10 uM): 100 to 1000 nM
- EC50 (sGC enzyme; [DETA-NO] 30 uM): ≤ 100 nM
- synergy with NO to stimulate sGC (sGC enzyme; varied DETA-NO concentrations): synergizes with NO
- Kp uu at 1 h ([1]; CSF / unbound plasma, @ 1 h): 0.7
- Kp uu at 2 h ([1]; CSF / unbound plasma, @ 2 h): 0.7
- Kp uu at 4 h ([1]; CSF / unbound plasma, @ 4 h): 0.7
- Kp uu at 8 h ([1]; CSF / unbound plasma, @ 8 h): 0.4
- concentration at 1 h ([1]; CSF, @ 1 h, read-out: CSF Conc.): 34 nM
- concentration at 2 h ([1]; CSF, @ 2 h, read-out: CSF Conc.): 34 nM
- concentration at 4 h ([1]; CSF, @ 4 h, read-out: CSF Conc.): 19 nM
- concentration at 8 h ([1]; CSF, @ 8 h, read-out: CSF Conc.): 2.4 nM
SMILES: Fc1ccccc1Cc1nc(-c2nc(C(F)(F)F)n[nH]2)cn2ccnc12 [Compound I-1, 8-(2-fluorobenzyl)-6-(3-(trifluoromethyl)-1H-1,2,4-triazol-5-yl)imidazo[1,2-a]pyrazine]
